This is an account of results in patent US7250435B2, “Acylsemicarbazides as cyclin dependent kinase inhibitors useful as anti-cancer and anti-proliferative agents” (Bristol-Myers Squibb Pharma Company, priority 1999, dated 2007).

Molecules are shown by their SMILES.

As usually defined, the melting point is the temperature of the solid-liquid transition.

As for `CC(=O)Nc1cccc2c1C(=O)c1c-2n[nH]c1-c1cccs1` [Example LXXXIX, 3-(2-thienyl)-5-(acetamido)indeno[1,2-c]pyrazol-4-one], the melting point stood at 269 °C.

Turning to `COc1ccc(-c2[nH]nc3c2C(=O)c2c(NC(=O)CCNc4ccncc4)cccc2-3)cc1` [Example XXXV, 3-(4-methoxyphenyl)-5-(4-pyridinylaminomethylacetamido)indeno[1,2-c]pyrazol-4-one], the melting point is > 300 °C. With `COc1ccc(-c2[nH]nc3c2C(=O)c2c(NC(=O)NCc4ccc(N)cc4)cccc2-3)cc1` [Example XLIV, 3-(4-methoxyphenyl)-5-(4-aminobenzylcarbamoyl)aminoindeno[1,2-c]pyrazol-4-one], the melting point was > 300 °C.

For the molecule `CC(=O)Nc1cccc2c1C(=O)c1c-2n[nH]c1C(C)(C)C` [Example LXXXVIII, 3-(t-butyl)-5-(acetamido)indeno[1,2-c]pyrazol-4-one], the melting point is > 250 °C. On to `COc1ccc(-c2[nH]nc3c2C(=O)c2c(NC(=O)NNC(=O)c4ccc(O)c(O)c4)cccc2-3)cc1` [Example CLXI, 3-(4-methoxyphenyl)-5-(2-(3,4-dihydroxybenzoyl)hydrazinecarboxamido)indeno[1,2-c]pyrazol-4-one], for which the melting point was > 300 °C.

With `CC(=O)Nc1cccc2c1C(=O)c1c-2n[nH]c1C(C)C` [Example LXXXVI, 3-(i-propyl)-5-(acetamido)indeno[1,2-c]pyrazol-4-one], the melting point was > 250 °C. The same measure for `COc1ccc(-c2[nH]nc3c2C(=O)c2c(NC(=O)NN(C)C)cccc2-3)cc1` [Example LXIV, 3-(4-methoxyphenyl)-5-(dimethylaminocarbamoyl)aminoindeno[1,2-c]pyrazol-4-one]: > 300 °C; for `CN1CCN(CC(=O)Nc2cccc3c2C(=O)c2c-3n[nH]c2-c2ccc(N3CCOCC3)cc2)CC1` [Example LXXXII, 3-(4-(4-morpholinyl)phenyl)-5-((4-methyl-1-piperazinyl)acetamido)indeno[1,2-c]pyrazol-4-one]: 258 °C; for `COc1ccc(-c2[nH]nc3c2C(=O)c2c(NC(=O)NNC(=O)c4ccccc4N)cccc2-3)cc1` [Example CLXV, 3-(4-methoxyphenyl)-5-(2-(2-aminobenzoyl)hydrazinecarboxamido)indeno[1,2-c]pyrazol-4-one]: 257 °C.
